{"source": "patent US6444235B1", "about": "“Canelo products and methods of making and using same” (bioActiva microtechne, priority 1999, dated 2002)", "tested_on": "p-388 (linfocitic leukemia)", "experiment": "biological activity on P-388 leukemia cultures", "type": "cell-based"}
{"smiles": "O=C1c2c(O)cc(O)cc2O[C@H](c2ccc(O)c(O)c2)[C@H]1O", "note": "[taxifoline]", "values": [{"measurement": "anticarcinogenic activity on P-388 cultures (leufocytic leukemia)", "result": "has shown anticarcinogenic activity"}]}
